Measurements published in patent US10752598B2, “Aryldiazepine derivatives as RSV inhibitors” (Enanta Pharmaceuticals, Inc., priority 2017, dated 2020).

system: Human RSV-A (“Long” strain); experiment: RSV-A in vitro cytoprotection (CPE) assay in HEp-2 cells, ATPlite readout; format: cell-based; settings: human respiratory syncytial virus, 96 h, 4-day incubation, ATPlite cell viability
Description: RSV is a single stranded negative sense RNA virus that causes respiratory tract infections which can be dangerous to infants, the elderly, and immunosuppressed individuals. Currently there is no vaccine, and therapeutic options are both costly and of limited effectiveness. These approved treatments are Ribavirin, and Palivizumab/Synagis (a monoclonal antibody). RSV has two genotypes, A and B, which differ primarily in the structure of the virus' surface “G” attachment protein. Our current primary screen focusses on RSV-A and uses an in vitro cytoprotection assay where compounds are added in 2-fold dilutions to cells which are then subjected to fully replicative viral particles. Cell viability is measured several days later along with separate measurements of compound cytotoxicity. This report focuses on the results of our most recent screening of compounds.
HEp-2 cells, (originally derived from tumors grown in irradiated-cortisonised weanling rats that had been injected with epidermoid carcinoma tissue from a person's larynx, but later found to be indistinguishable from HeLa cells by PCR DNA analysis), were used for the culturing of genotype A, “Long” strain RSV. Flasks were inoculated with RSV and viral stocks were collected once cytopathic effect (CPE) was greater than 90%. Viral stocks in 25% sucrose media were snap frozen using liquid nitrogen to increase viral stability. Viral stock titers were quantified by tissue culture infectious dose 50% (TCID50) using 8,000 cells per well and 3-fold viral dilutions across a 96-well plate, cultured for 4 days.
Following extensive parameter testing, the final assay is run as follows: HEp-2 cells are seeded into the inner 60 wells of a 96-well plate at 8,000 cells per well in a volume of […] Growth Media (DMEM without phenol red, 1% L-Glut, 1% Penn/Strep, 1% nonessential amino acids, 10% FBS). 2-fold serial dilutions of control and test compounds are added to the wells in duplicate in a total volume of 25 μL. Viral stock is then added to the wells in a volume of 25 μL, bringing the total volume of each well to 100 μL. Each 96-well plate has a control column of 6 wells with cells and virus but no compound (negative control, max CPE), a column with cells but no compound or virus (positive control, minimum CPE), and a column with no cells or virus or compound (background plate/reagent control). The control wells with cells but no virus are given an additional 25 uL of growth media containing an equal quantity of sucrose as those wells receiving the viral stock in order to keep consistent in media and volume conditions. The outer wells of the plate are filled with 125 μL of growth media to act as a thermal and evaporative moat around the test wells. Following a 4-day incubation period, the plates are read using ATPlite (50 uL added per well), which quantifies the amount of ATP (a measure of cell health) present in each well. Assay plates are read using the Envision luminometer. […] EC50 ranges are as follows: A<2 μM; B 2-5 μM; C>5 μM.

SMILES	EC50 [µM]
O=C1Nc2ccccc2N(c2ccccc2)C[C@@H]1Nc1nnc(-c2ncc(C(F)(F)F)cc2N2CCOCC2)o1 [Example 5, (S)-3-((5-(3-morpholino-5-(trifluoromethyl)pyridin-2-yl)-1,3,4-oxadiazol-2-yl)amino)-5-phenyl-1,3,4,5-tetrahydro-2H-benzo[b][1,4]diazepin-2-one]	< 2
O=C1Nc2ccccc2N(c2ccccc2)C[C@@H]1Nc1nnc(-c2nc(C(F)(F)F)sc2N2CCOCC2)o1 [Example 14, (S)-3-((5-(5-morpholino-2-(trifluoromethyl)thiazol-4-yl)-1,3,4-oxadiazol-2-yl)amino)-5-phenyl-1,3,4,5-tetrahydro-2H-benzo[b][1,4]diazepin-2-one]	< 2
O=C1Nc2ccccc2N(c2cc(F)c(F)c(F)c2)C[C@@H]1Nc1nnc(-c2ncc(C(F)(F)F)cc2N2CCOCC2)o1 [Example 17]	> 5
O=C(Nc1ccccc1)NC1C(=O)Nc2ccccc2N(c2ccccc2)C1=O (centres unmarked) [Example 20]	> 5
O=C1Nc2ccccc2N(c2ccccc2)C[C@@H]1Nc1nnc(-c2cn(C3CCCC3)nc2N2CCOCC2)o1 [Example 10]	< 2
O=C(NC1C(=O)Nc2ccccc2N(c2ccccc2)C1=O)c1ccccc1 (centres unmarked) [Example 21]	> 5
O=C1Nc2ccccc2N(c2ccccc2)C[C@@H]1Nc1nnc(-c2cn(-c3ccccn3)nc2N2CCOCC2)o1 [Example 13]	2 to 5
O=C1Nc2ccccc2N(c2ccccc2)C(=O)C1Nc1nnc(-c2ccccc2)o1 (centres unmarked) [Example 19]	> 5
O=C1Nc2ccccc2N(c2ccccc2)C[C@@H]1Nc1nnc(-c2ccc(N3CCOCC3)cc2F)o1 [Example 12]	> 5
O=C1Nc2ccccc2N(c2ccccc2)C[C@@H]1Nc1nnc(-c2ccc(F)cc2)o1 [Example 11]	> 5
COCCNc1cc(C(F)(F)F)cnc1-c1nnc(N[C@H]2CN(c3ccccc3)c3ccccc3NC2=O)o1 [Example 8]	> 5
O=C(Nc1ccccc1)N[C@H]1CN(c2ccccc2)c2ccccc2NC1=O [Example 3]	> 5
O=C1Nc2ccccc2N(c2ccccc2)C[C@@H]1Nc1nc2ccccc2o1 [Example 2, (S)-3-(benzo[d]oxazol-2-ylamino)-5-phenyl-1,3,4,5-tetrahydro-2H-benzo[b][1,4]diazepin-2-one]	> 5
O=C1Nc2ccccc2N(c2ccccc2)C[C@@H]1Nc1nnc(-c2ncc(C3CC3)cc2N2CCOCC2)o1 [Example 7]	< 2
Cc1ccc(-c2nnc(N[C@H]3CN(c4ccccc4)c4ccccc4NC3=O)o2)o1 [Example 9]	> 5
O=C1Nc2ccccc2N(c2ccccc2)C[C@@H]1Nc1nnc(-c2nc(-c3cccnc3)sc2N2CCOCC2)o1 [Example 16]	< 2
O=C(N[C@H]1CN(c2ccccc2)c2ccccc2NC1=O)c1ccccc1 [Example 4, (S)—N-(4-oxo-1-phenyl-2,3,4,5-tetrahydro-1H-benzo[b][1,4]diazepin-3-yl)benzamide]	> 5
O=C1Nc2ccccc2N(c2ccccc2)C[C@@H]1Nc1nnc(-c2ccccc2)o1 [Example 1, (S)-5-phenyl-3-((5-phenyl-1,3,4-oxadiazol-2-yl)amino)-1,3,4,5-tetrahydro-2H-benzo[b][1,4]diazepin-2-one]	> 5
O=C1Nc2ccccc2N(c2ccccc2)C[C@@H]1Nc1nnc(-c2cccnc2N2CCOCC2)o1 [Example 6]	2 to 5
O=C1Nc2ccccc2N(c2ccccc2)C[C@@H]1Nc1nnc(-c2nc(C3CC3)sc2N2CCOCC2)o1 [Example 15]	< 2
